Measurements from patent US9527879B2, “Aster glehni extracts, fractions or compounds isolated therefrom for the treatment or prevention of hyperuricemia or gout” (KOREA INSTITUTE OF SCIENCE AND TECHNOLOGY, priority 2014, dated 2016).

These compounds were tested against xanthine oxidase (UniProt P80457) (assay: Inhibition of production of uric acid by xanthine/xanthine oxidase). Settings: xanthine oxidase 0.024 units/mL, 100 μM xanthine, pH 7.5, 25° C.; mean ± SEM of triplicate experiments.
Assay type: biochemical
Description: Uric acid is produced from xanthine oxidation by xanthine oxidase.
Specifically, the sample and xanthine oxidase (0.024 units/mL) were mixed in 100 mM phosphate buffer (pH 7.5) and preincubated at 25° C. for 10 min. The reaction was initiated by the addition of 100 μM xanthine and incubation was further carried out at 25° C. for 30 min. […] The inhibition of uric acid production A (%) was calculated according to Equation 1. […] [Equation 1]

Compound | IC50 [µM]
C[C@H](/C=C/[C@@]1(O)[C@H](C)CC(=O)CC1(C)C)OC1OC(COC(=O)/C=C/c2ccc(O)c(O)c2)C(O)C(O)C1O (stereo partly shown) [Compound 1, 6′-O-caffeoylampelopsisionoside] | 93 ± 1.7
CC(=O)/C=C/C1=C(C)C(O)C(O[C@@H]2OC(COC(=O)/C=C/c3ccc(O)c(O)c3)[C@@H](O)C(O)C2O)CC1(C)C (stereo partly shown) [Compound 3, 6′-O-Caffeoylsonchuinoside C] | 73.2 ± 5.1
COc1cc(CCCO)cc(OC)c1O[C@@H]1OC(COC(=O)/C=C/c2ccc(O)c(O)c2)[C@@H](O)C(O)C1O (stereo partly shown) [Compound 4, 6′-O-Caffeoyldihydrosyringin] | 71.1 ± 3.9
C/C(=C\CO)CO[C@@H]1OC(COC(=O)/C=C/c2ccc(O)c(O)c2)[C@@H](O)C(O)C1O (stereo partly shown) [Compound 5] | 80 ± 4.9
